Tests used:
[1] = molecular target: T1, serotonin transporters (SERT) (Rattus norvegicus, UniProt P31652); test: In vitro binding assay, LLC-SERT membrane homogenates, [^125I]IDAM; details: 0.2 nM [^125I]IDAM, LLC-SERT membranes; read-out: Ki (SERT binding affinity) (converted)
T1 construct: expressed in transfected cells; host or cells: LLC-PK1 (LLC-SERT)
Experimental: The membrane homogenates of serotonin transporters (LLC-SERT, which were expressed in a common parental cell line LLC-PK1) were prepared and used for the binding assays. Competitive binding assays were performed in a final volume of 0.25 mL. […] Nonspecific binding was defined with 10 μM citalopram. Incubation was carried out for 60 min at room temperature and the bound ligand was collected on glass fiber filters presoaked with 1% polyethylenimine (SIGMA, St. Louis, MO) and counted in a gamma counter (Wizard^2, Perkin Elmer).

[2] = Biodistribution study in mice; type: in vivo; details: for Biodistribution Blood / Biodistribution Bone / Biodistribution Brain / Biodistribution Heart / Biodistribution Kidney / Biodistribution Liver / Biodistribution Lung / Biodistribution Muscle / Biodistribution Pancreas / Biodistribution Skin / Biodistribution Spleen: normal male mice
Experimental: Three mice per group were used for biodistribution study. While under isoflurane anesthesia, 0.1 mL of a saline solution containing radioactive tracer was injected into tail vein. The mice were sacrificed at the time indicated by cardiac excision while under isoflurane anesthesia. Organs of interest were removed and weighed, and the radioactivity was counted. The percent dose per organ was calculated by comparing the tissue counts to counts of 1% of the initial dose (100 times diluted aliquots of the injected material) measured at the same time.

[3] = Biodistribution in rats of ^18F-III-3 (^18F-FPBM-D12); type: in vivo, rat; details: for Biodistribution Blood / Biodistribution Bone / Biodistribution Brain / Biodistribution Heart / Biodistribution Kidney / Biodistribution Liver / Biodistribution Lung / Biodistribution Muscle / Biodistribution Pancreas / Biodistribution Skin / Biodistribution Spleen: normal rats, i.v.
Experimental: (§1) Three rats per group were used for each biodistribution study. While under isoflurane anesthesia, 0.2 mL of a saline solution containing 20 μCi of radioactive tracer was injected into the femoral vein. The rats were sacrificed at the time indicated by cardiac excision while under isoflurane anesthesia. Organs of interest were removed and weighed, and the radioactivity was counted. The percent dose per organ was calculated by comparing the tissue counts to counts of 1% of the initial dose (100 times diluted aliquots of the injected material) measured at the same time. Regional brain distribution in rats was measured after an iv injection of the radioactive tracer. Samples from different brain regions [cortex, striatum, hippocampus, cerebellum and hypothalamus] were dissected, weighed and counted. The percentage dose/g of each sample was calculated by comparing sample counts with the counts of the diluted initial dose described above. The ratio was calculated by dividing the percentage dose/g of each region by that of the cerebellum. The cerebellum was used as the reference region for calculating the ratio of target to non-target binding, because only a trace amount of SERT is present in the cerebellum.

[4] = molecular target: T2, SERT (Rattus norvegicus, UniProt P31652); test: Region to cerebellum ratio in rats, ^18F-III-3; type: in vivo; details: normal rats, i.v.
T2 construct: host or cells: live rats, dissected brain regions
T2 sequence (P31652 whole entry): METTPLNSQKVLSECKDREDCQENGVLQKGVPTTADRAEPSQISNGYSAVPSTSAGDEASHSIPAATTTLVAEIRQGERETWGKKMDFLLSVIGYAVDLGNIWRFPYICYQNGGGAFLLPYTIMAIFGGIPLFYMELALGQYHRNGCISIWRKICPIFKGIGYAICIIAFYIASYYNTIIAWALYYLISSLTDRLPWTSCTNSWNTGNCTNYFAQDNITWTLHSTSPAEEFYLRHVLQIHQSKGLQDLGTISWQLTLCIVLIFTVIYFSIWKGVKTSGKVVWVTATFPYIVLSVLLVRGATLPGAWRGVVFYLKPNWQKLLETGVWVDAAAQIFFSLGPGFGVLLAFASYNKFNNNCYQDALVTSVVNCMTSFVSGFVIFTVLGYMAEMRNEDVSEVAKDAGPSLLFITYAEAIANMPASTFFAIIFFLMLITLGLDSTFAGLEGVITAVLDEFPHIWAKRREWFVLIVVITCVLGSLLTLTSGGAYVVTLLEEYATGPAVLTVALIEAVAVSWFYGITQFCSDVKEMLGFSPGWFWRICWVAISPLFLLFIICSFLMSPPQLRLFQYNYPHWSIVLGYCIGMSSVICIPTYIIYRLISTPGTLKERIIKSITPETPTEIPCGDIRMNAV
Experimental: as §1

T1 sequence (P31652 whole entry): as above

SMILES: CN(C)Cc1cc(O)ccc1Sc1ccc(Br)cc1N [III-4-18]
- Ki [1]: 20 pM

SMILES: CNCc1cc(OCCCF)ccc1Sc1ccccc1N [III-6-5]
- Ki [1]: 5260 ± 660 pM

SMILES: NCc1cc(OCCCF)ccc1Sc1ccccc1N [III-5-5]
- Ki [1]: 39300 ± 11900 pM

SMILES: [2H]C([2H])(F)C([2H])([2H])C([2H])([2H])Oc1ccc(Sc2ccc(Br)cc2N)c(CN(C)C)c1 [III-4-26]
- Ki [1]: 21 pM

SMILES: CN(C)Cc1cc(OCCCF)ccc1Sc1ccc(F)cc1N
- Ki [1]: 22 ± 16 pM

SMILES: CN(C)Cc1cc(OCCCF)ccc1Sc1ccccc1N [III-1 (FPBM), reference compound]
- Ki [1]: 52 ± 7 pM

SMILES: [2H]C([2H])([2H])NCc1cc(OCCCF)ccc1Sc1ccccc1N [III-6-8]
- Ki [1]: 3050 ± 810 pM

SMILES: [2H]C([2H])([2H])N(Cc1cc(OCCCF)ccc1Sc1ccccc1N)C([2H])([2H])[2H] (single isomer, unassigned) [III-2]
- Ki [1]: 32 ± 13 pM

SMILES: CN(C)Cc1cc(O)ccc1Sc1ccccc1N [III-1-1]
- Ki [1]: 1210 ± 150 pM

SMILES: [2H]C([2H])([2H])Nc1ccc(/C=C/c2ccc(OCCOCCOCC[18F])nc2)cc1 [^18F-AV-45-D3 (IIa1)]
- brain uptake ([2]; mice, after i.v. injection): excellent brain uptake comparable to that observed to ^18F-AV-45
- Biodistribution Blood ([2]; 2 min): 2.16 ± 0.05 % Dose/g
- Biodistribution Bone ([2]; 2 min): 1.74 ± 0.18 % Dose/g
- Biodistribution Brain ([2]; 2 min): 6.26 ± 0.23 % Dose/g
- Biodistribution Heart ([2]; 2 min): 5.08 ± 0.39 % Dose/g
- Biodistribution Kidney ([2]; 2 min): 9.51 ± 0.80 % Dose/g
- Biodistribution Liver ([2]; 2 min): 12.0 ± 0.70 % Dose/g
- Biodistribution Lung ([2]; 2 min): 4.88 ± 0.16 % Dose/g
- Biodistribution Muscle ([2]; 2 min): 3.21 ± 0.14 % Dose/g
- Biodistribution Pancreas ([2]; 2 min): 4.94 ± 0.77 % Dose/g
- Biodistribution Skin ([2]; 2 min): 1.24 ± 0.27 % Dose/g
- Biodistribution Spleen ([2]; 2 min): 2.50 ± 0.12 % Dose/g
- Biodistribution Blood ([2]; 30 min): 2.93 ± 0.27 % Dose/g
- Biodistribution Bone ([2]; 30 min): 2.24 ± 0.44 % Dose/g
- Biodistribution Brain ([2]; 30 min): 1.71 ± 0.37 % Dose/g
- Biodistribution Heart ([2]; 30 min): 2.40 ± 0.39 % Dose/g
- Biodistribution Kidney ([2]; 30 min): 6.41 ± 1.86 % Dose/g
- Biodistribution Liver ([2]; 30 min): 12.0 ± 0.71 % Dose/g
- Biodistribution Lung ([2]; 30 min): 2.90 ± 0.47 % Dose/g
- Biodistribution Muscle ([2]; 30 min): 1.79 ± 0.06 % Dose/g
- Biodistribution Pancreas ([2]; 30 min): 2.05 ± 0.29 % Dose/g
- Biodistribution Skin ([2]; 30 min): 2.07 ± 0.14 % Dose/g
- Biodistribution Spleen ([2]; 30 min): 1.52 ± 0.21 % Dose/g
- Biodistribution Blood ([2]; 60 min): 2.08 ± 0.07 % Dose/g
- Biodistribution Bone ([2]; 60 min): 2.76 ± 0.37 % Dose/g
- Biodistribution Brain ([2]; 60 min): 1.53 ± 0.20 % Dose/g
- Biodistribution Heart ([2]; 60 min): 1.72 ± 0.19 % Dose/g
- Biodistribution Kidney ([2]; 60 min): 3.74 ± 0.47 % Dose/g
- Biodistribution Liver ([2]; 60 min): 8.15 ± 0.75 % Dose/g
- Biodistribution Lung ([2]; 60 min): 1.97 ± 0.25 % Dose/g
- Biodistribution Muscle ([2]; 60 min): 1.20 ± 0.04 % Dose/g
- Biodistribution Pancreas ([2]; 60 min): 1.43 ± 0.20 % Dose/g
- Biodistribution Skin ([2]; 60 min): 1.34 ± 0.07 % Dose/g
- Biodistribution Spleen ([2]; 60 min): 1.22 ± 0.12 % Dose/g
- Biodistribution Blood ([2]; 120 min): 1.36 ± 0.12 % Dose/g
- Biodistribution Bone ([2]; 120 min): 4.41 ± 0.77 % Dose/g
- Biodistribution Brain ([2]; 120 min): 1.26 ± 0.04 % Dose/g
- Biodistribution Heart ([2]; 120 min): 1.18 ± 0.03 % Dose/g
- Biodistribution Kidney ([2]; 120 min): 2.09 ± 0.02 % Dose/g
- Biodistribution Liver ([2]; 120 min): 5.47 ± 0.29 % Dose/g
- Biodistribution Lung ([2]; 120 min): 1.31 ± 0.03 % Dose/g
- Biodistribution Muscle ([2]; 120 min): 0.75 ± 0.07 % Dose/g
- Biodistribution Pancreas ([2]; 120 min): 0.87 ± 0.15 % Dose/g
- Biodistribution Skin ([2]; 120 min): 0.91 ± 0.13 % Dose/g
- Biodistribution Spleen ([2]; 120 min): 0.83 ± 0.07 % Dose/g

SMILES: [2H]C([2H])([2H])N(Cc1cc(OC([2H])([2H])C([2H])([2H])C([2H])([2H])[18F])ccc1Sc1ccccc1N)C([2H])([2H])[2H] [^18F-III-3 (^18F-FPBM-D12)]
- Biodistribution Blood ([3]; 2 min): 0.25 ± 0.04 % Dose/g
- Biodistribution Bone ([3]; 2 min): 0.35 ± 0.06 % Dose/g
- Biodistribution Brain ([3]; 2 min): 1.09 ± 0.06 % Dose/g
- Biodistribution Heart ([3]; 2 min): 1.19 ± 0.18 % Dose/g
- Biodistribution Kidney ([3]; 2 min): 3.02 ± 0.16 % Dose/g
- Biodistribution Liver ([3]; 2 min): 0.74 ± 0.16 % Dose/g
- Biodistribution Lung ([3]; 2 min): 9.56 ± 2.29 % Dose/g
- Biodistribution Muscle ([3]; 2 min): 0.14 ± 0.02 % Dose/g
- Biodistribution Pancreas ([3]; 2 min): 1.13 ± 0.02 % Dose/g
- Biodistribution Skin ([3]; 2 min): 0.22 ± 0.04 % Dose/g
- Biodistribution Spleen ([3]; 2 min): 1.48 ± 0.31 % Dose/g
- Biodistribution Blood ([3]; 30 min): 0.16 ± 0.03 % Dose/g
- Biodistribution Bone ([3]; 30 min): 0.19 ± 0.01 % Dose/g
- Biodistribution Brain ([3]; 30 min): 0.81 ± 0.04 % Dose/g
- Biodistribution Heart ([3]; 30 min): 0.18 ± 0.02 % Dose/g
- Biodistribution Kidney ([3]; 30 min): 1.79 ± 0.38 % Dose/g
- Biodistribution Liver ([3]; 30 min): 0.30 ± 0.05 % Dose/g
- Biodistribution Lung ([3]; 30 min): 1.86 ± 0.42 % Dose/g
- Biodistribution Muscle ([3]; 30 min): 0.09 ± 0.02 % Dose/g
- Biodistribution Pancreas ([3]; 30 min): 0.27 ± 0.06 % Dose/g
- Biodistribution Skin ([3]; 30 min): 0.19 ± 0.03 % Dose/g
- Biodistribution Spleen ([3]; 30 min): 0.88 ± 0.05 % Dose/g
- Biodistribution Blood ([3]; 60 min): 0.10 ± 0.02 % Dose/g
- Biodistribution Bone ([3]; 60 min): 0.16 ± 0.02 % Dose/g
- Biodistribution Brain ([3]; 60 min): 0.54 ± 0.05 % Dose/g
- Biodistribution Heart ([3]; 60 min): 0.09 ± 0.01 % Dose/g
- Biodistribution Kidney ([3]; 60 min): 1.29 ± 0.29 % Dose/g
- Biodistribution Liver ([3]; 60 min): 0.22 ± 0.02 % Dose/g
- Biodistribution Lung ([3]; 60 min): 0.85 ± 0.11 % Dose/g
- Biodistribution Muscle ([3]; 60 min): 0.07 ± 0.01 % Dose/g
- Biodistribution Pancreas ([3]; 60 min): 0.19 ± 0.02 % Dose/g
- Biodistribution Skin ([3]; 60 min): 0.16 ± 0.01 % Dose/g
- Biodistribution Spleen ([3]; 60 min): 0.46 ± 0.10 % Dose/g
- Biodistribution Blood ([3]; 120 min): 0.06 ± 0.00 % Dose/g
- Biodistribution Bone ([3]; 120 min): 0.13 ± 0.01 % Dose/g
- Biodistribution Brain ([3]; 120 min): 0.31 ± 0.03 % Dose/g
- Biodistribution Heart ([3]; 120 min): 0.05 ± 0.01 % Dose/g
- Biodistribution Kidney ([3]; 120 min): 0.83 ± 0.39 % Dose/g
- Biodistribution Liver ([3]; 120 min): 0.16 ± 0.01 % Dose/g
- Biodistribution Lung ([3]; 120 min): 0.45 ± 0.10 % Dose/g
- Biodistribution Muscle ([3]; 120 min): 0.03 ± 0.01 % Dose/g
- Biodistribution Pancreas ([3]; 120 min): 0.13 ± 0.07 % Dose/g
- Biodistribution Skin ([3]; 120 min): 0.10 ± 0.02 % Dose/g
- Biodistribution Spleen ([3]; 120 min): 0.21 ± 0.04 % Dose/g
- blood-brain-barrier penetration ([3]; rats, after i.v. injection): penetrated the blood-brain-barrier
- Region to Cerebellum Ratio: Cerebellum ([4]; 2 min): 1.00 ± 0.00
- Region to Cerebellum Ratio: Cortex ([4]; 2 min): 1.44 ± 0.27
- Region to Cerebellum Ratio: Hippocampus ([4]; 2 min): 0.97 ± 0.13
- Region to Cerebellum Ratio: Hypothalamus ([4]; 2 min): 1.17 ± 0.21
- Region to Cerebellum Ratio: Remainder ([4]; 2 min): 1.21 ± 0.13
- Region to Cerebellum Ratio: Striatum ([4]; 2 min): 1.15 ± 0.18
- Region to Cerebellum Ratio: Cerebellum ([4]; 30 min): 1.00 ± 0.00
- Region to Cerebellum Ratio: Cortex ([4]; 30 min): 1.81 ± 0.30
- Region to Cerebellum Ratio: Hippocampus ([4]; 30 min): 2.04 ± 0.27
- Region to Cerebellum Ratio: Hypothalamus ([4]; 30 min): 2.99 ± 0.46
- Region to Cerebellum Ratio: Remainder ([4]; 30 min): 2.42 ± 0.13
- Region to Cerebellum Ratio: Striatum ([4]; 30 min): 2.43 ± 0.38
- Region to Cerebellum Ratio: Cerebellum ([4]; 60 min): 1.00 ± 0.00
- Region to Cerebellum Ratio: Cortex ([4]; 60 min): 2.68 ± 0.35
- Region to Cerebellum Ratio: Hippocampus ([4]; 60 min): 3.45 ± 0.42
- Region to Cerebellum Ratio: Hypothalamus ([4]; 60 min): 5.32 ± 0.45
- Region to Cerebellum Ratio: Remainder ([4]; 60 min): 3.77 ± 0.43
- Region to Cerebellum Ratio: Striatum ([4]; 60 min): 3.96 ± 0.62
- Region to Cerebellum Ratio: Cerebellum ([4]; 120 min): 1.00 ± 0.00
- Region to Cerebellum Ratio: Cortex ([4]; 120 min): 2.67 ± 0.50
- Region to Cerebellum Ratio: Hippocampus ([4]; 120 min): 3.85 ± 0.28
- Region to Cerebellum Ratio: Hypothalamus ([4]; 120 min): 7.55 ± 0.82
- Region to Cerebellum Ratio: Remainder ([4]; 120 min): 4.74 ± 0.71
- Region to Cerebellum Ratio: Striatum ([4]; 120 min): 4.69 ± 1.26
